Here are results for seven molecules from patent publication US20220062296A1, “COMBINATIONS OF GABAA ALPHA 5 AGONISTS AND SV2A INHIBITORS AND METHODS OF USING IN THE TREATMENT OF COGNITIVE IMPAIRMENT” (AGENEBIO, INC., priority 2020, published 2022).

“Also recorded” adds a separate entry of the source.

Data set [1] in a line: Differential scanning calorimetry / thermogravimetry (DSC, TGA). Format: physicochemical. Particulars: 10° C./min. On the procedure:
DSC was performed using a Mettler-Toledo DSC3+ differential scanning calorimeter. A tau lag adjustment is performed with indium, tin, and zinc. The temperature and enthalpy are adjusted with octane, phenyl salicylate, indium, tin and zinc. The adjustment is then verified with octane, phenyl salicylate, indium, tin, and zinc. The sample was placed into a hermetically sealed aluminum DSC pan, the weight was accurately recorded, and the sample was inserted into the DSC cell. A weighed aluminum pan configured as the sample pan was placed on the reference side of the cell. The pan lid was pierced prior to sample analysis. The samples were analyzed from −25° C. to 250° C. at 10° C./min.
Thermogravimetric analyses were performed using a Mettler-Toledo TGA/DSC3+ analyzer. Temperature calibration was performed using calcium oxalate, indium, tin, and zinc. The sample was placed in an aluminum pan. The pan was hermetically sealed, the lid was pierced, and the pan was then inserted into the TG furnace. A weighed aluminum pan configured as the sample pan was placed on the reference platform. The furnace was heated under nitrogen. Samples were analyzed from 25° C. to 350° C. at 10° C./min.
(DSC measures the heat that a sample takes up or gives off during a temperature scan.)

A short description of data set [2]: Competitive interconversion slurry experiments between crystalline forms (relative thermodynamic stability). The data set is classed as physicochemical. Particulars: ambient temperature; Form E also 55° C. and 77° C. On the procedure:
Interconversion experiments were performed to identify the most thermodynamically stable anhydrous form of Compound 1 (Table 19). […] The choice of solvent affects the kinetics of polymorph conversion and not the thermodynamic relationship between polymorphic forms.
Various combinations of Forms B, E, F, and Material D were slurried with Form A at ambient and elevated temperatures (for experiments involving Form E). Different solvent systems were used and included a variety of water activities. Saturated solutions were generated and then added to the mixtures composed of approximately equivalent quantities of the forms. The mixtures were slurried for a particular duration of time and the solids harvested and analyzed by XRPD.

A short description of data set [3]: Dynamic vapor sorption (DVS). Format: physicochemical. Particulars: for form recovered after the DVS experiment (XRPD): post DVS. As for the experimental part: Dynamic vapor sorption data was collected on a Surface Measurement System DVS Intrinsic instrument. The samples were not dried prior to analysis. Sorption and desorption data were collected over a range from 5% to 95% RH in 10% RH increments under a nitrogen purge. The equilibrium criteria used for the analyses were 0.001 dm/dt weight change in 5 minutes with a minimum step time of 30 minutes and maximum equilibration time of 180 minutes with a 3-minute data logging interval. Data were not corrected for the initial moisture content of the sample. The samples were identified as having low, limited or significant hygroscopicity based on the definitions in the below table.

The nature of data set [4]: Storage and stress stability of crystalline forms (XRPD). Particulars: for stability under ambient storage: ambient conditions. The data set is classed as physicochemical. As for the experimental part: XRPD patterns were collected with a PANalytical X'Pert PRO MPD or a PANalytical Empyrean diffractometer using an incident beam of Cu radiation produced using an Optix long, fine-focus source. An elliptically graded multilayer mirror was used to focus Cu Kα X-rays through the specimen and onto the detector. Prior to the analysis, a silicon specimen (NIST SRM 640e) was analyzed to verify the observed position of the Si 111 peak is consistent with the NIST-certified position. A specimen of the sample was sandwiched between 3-μm-thick films and analyzed in transmission geometry. A beam-stop, short antiscatter extension, and antiscatter knife edge were used to minimize the background generated by air. Sober slits for the incident and diffracted beams were used to minimize broadening from axial divergence. Diffraction patterns were collected using a scanning position-sensitive detector (X'Celerator) located 240 mm from the specimen and Data Collector software v. 5.5.

The subject of data set [5] is MAM-treated rats. Particulars: cited from earlier work.

Regarding `COCc1nnc2n1Cc1c(C#Cc3cnc(OC)s3)ncn1-c1ccc(Cl)cc1-2` [Form A], in data set [1], the “onset of DSC exotherm due to decomposition” value (“onset of DSC exotherm due” for short) was “about 207 °C”. The “outcome of solvent-mediated interconversion with Form A (relative thermodynamic stability)” value (from here on “outcome … (relative thermodynamic stability)”) in data set [2] is on record as “Form A prevailed for each experiment”. Also, the “hygroscopicity (DVS isotherm)” value in data set [3] (5% to 95% RH) was “low hygroscopicity; also recorded: limited hygroscopicity”. Further, the “weight change through the sorption/desorption cycle” value in data set [3] (5% to 95% RH, no hysteresis) is given as about 0.3%. Moreover, the “form recovered after the DVS experiment (XRPD)” value in data set [3] is recorded as “same as the starting material”.

`COCc1nnc2n1Cc1c(C#Cc3cnc(OC)s3)ncn1-c1ccc(Cl)cc1-2` [Form B]: in data set [1], the “onset of DSC exotherm due” value was “about 190 °C”. In addition, the “outcome … (relative thermodynamic stability)” value in data set [2] is “convert to Form A”.

For the molecule `COCc1nnc2n1Cc1c(C#Cc3cnc(OC)s3)ncn1-c1ccc(Cl)cc1-2` [Form C], the “onset of DSC exotherm due” value in data set [1] amounted to 190 °C. Moreover, the “behaviour upon overnight exposure to 80° C.” value in data set [4] (80° C., overnight) was “desolvate to Form B”. The “stability under ambient storage” value in data set [4] was “remain unchanged for 9 weeks”.

With `COCc1nnc2n1Cc1c(C#Cc3cnc(OC)s3)ncn1-c1ccc(Cl)cc1-2` [Form E], the “onset of DSC exotherm due” value in data set [1] was about 201 °C. For the same molecule, the “outcome … (relative thermodynamic stability)” value in data set [2] is “metastable relative to Form A”.

For the molecule `COCc1nnc2n1Cc1c(C#Cc3cnc(OC)s3)ncn1-c1ccc(Cl)cc1-2` [Form F], in data set [1], the “onset of DSC exotherm due” value was “above 120 °C”. Moreover, in data set [4] (100° C.), the “behaviour upon exposure to 100° C.” value was “does dehydrate”. Besides, the “stability under vacuum at ambient temperature” value in data set [4] (vacuum, ambient temperature) was “remain unchanged for 5 days”. The “hygroscopicity (DVS isotherm)” value in data set [3] (5% to 95% RH) was “limited hygroscopicity”. In addition, in data set [3] (from 5-95% RH), the “weight gain on sorption” value was determined as 1.8%. Besides, the “form recovered after the DVS experiment (XRPD)” value in data set [3] was “still Form F”. Also, in data set [3] (significant hysteresis), the “weight loss upon desorption” value was 1.5%.

Consider `COCc1nnc2n1Cc1c(C#Cc3cnc(OC)s3)ncn1-c1ccc(Cl)cc1-2` [Material D], for which the “onset of DSC exotherm due” value in data set [1] is about 174 °C. Besides, the “stability under ambient storage” value in data set [4] is on record as “Material D still remained”. Besides, in data set [2], the “outcome … (relative thermodynamic stability)” value is given as “convert to Form A”.

Turning to `C#Cc1ccc2c(c1)C(c1ccccc1F)=N[C@H](C)c1c(C(=O)OCC)ncn1-2` [SH-053-2′F—R—CH3], the “number of spontaneously active DA neurons in the ventral tegmental area (VTA)” value in data set [5] (MAM rats, systemic or infused into the ventral HPC) is “reduces the number of spontaneously active DA neurons”. Also, the “increased locomotor response to amphetamine” value in data set [5] (MAM-treated rats) was “is reduced”. Also, the “cortical-evoked responses of HPC neurons” value in data set [5] (saline-treated and MAM-treated animals) is on record as “diminished cortical-evoked responses”.
